Data reported in patent publication US20160354373A1, “METHODS OF TREATING ACUTE T CELL LEUKEMIA” (priority 2015, published 2016).

Assays:
[1] = tested on: Notch1-ΔE-IRES-GFP+ T-ALL cells; settings: AMD3465 20 nmol/hour via s.c. osmotic pump vs PBS; two weeks of treatment; started at >5% GFP+ blasts in blood
Excerpt: After GFP^+ leukemic cells reached 5% of white blood cells, osmotic pumps filled with AMD3465 (20 nmol/hour) or vehicle (PBS) were implanted subcutaneously (s.c.). The graphs show T-ALL cell numbers in the indicated tissues 2 weeks after treatment initiation. Bars represent the mean. […] After leukemia reached 5% of white blood cells, osmotic pumps filled with AMD3465 (25 nmol/hour) or vehicle were implanted s.c. Analysis was 2 weeks after treatment initiation. […] Values represent the mean frequency of hCD45^+ cells+/−SEM. […] Bars represent the mean.
For inhibition of CXCR4 in primary mouse T-ALL, mice were anaesthetized by isoflurane inhalation and implanted subcutaneously with osmotic pumps (model 2002; Alzet) filled with 40 mM AMD3465 (Tocris) or PBS (flow rate 0.5 ul/hour). […] For CXCR4 inhibition in xenografted patient T-ALL, NOD-SCID mice were implanted with osmotic pumps filled with 50 mM AMD3465 or PBS. Mice implanted with osmotic pumps were sacrificed 14 days later for analysis of tumor burden by flow cytometry.
To this end, two cohorts of lethally irradiated mice were transplanted with Notch1-ΔE-IRES-GFP^+ bone marrow progenitor cells, and after >5% peripheral blood lymphocytes constituted GFP^+ leukemic blasts, AMD3465 (20 nmol/hour) or PBS was administered via osmotic pump.

[2] = tested on: primary human T-ALL cells (hCD45+); settings: two weeks
Excerpt: After GFP^+ leukemic cells reached 5% of white blood cells, osmotic pumps filled with AMD3465 (20 nmol/hour) or vehicle (PBS) were implanted subcutaneously (s.c.). […] After leukemia reached 5% of white blood cells, osmotic pumps filled with AMD3465 (25 nmol/hour) or vehicle were implanted s.c. Analysis was 2 weeks after treatment initiation. […] Values represent the mean frequency of hCD45^+ cells+/−SEM.
For human xenograft studies, NOD-SCID donor mice were used. […] 1-5×10^6 cells patient cells were transplanted into immunodeficient mouse strains via retro-orbital injection. Cells from spleen of these primary recipients were used for experiments.
For CXCR4 inhibition in xenografted patient T-ALL, NOD-SCID mice were implanted with osmotic pumps filled with 50 mM AMD3465 or PBS. Mice implanted with osmotic pumps were sacrificed 14 days later for analysis of tumor burden by flow cytometry.
First, the primary human leukemia cells were expanded in immune-deficient NOD/MrkBomTac-Prkdc^scid (NOD-SCID) hosts for 6 weeks. Subsequently, two million human T-ALL cells were transplanted into secondary NOD-SCID hosts and peripheral blood was monitored for the appearance of human CD45+ (hCD45+) leukemic cells. Once leukemia constituted >5% of white blood cells in blood, treatment began with AMD3465 or vehicle using osmotic pumps. Two weeks later, animals were sacrificed and the leukemia burden was assessed.

Myc [3] = settings: 8 hours after s.c. AMD3465, 2 doses of 25 mg/kg 4 hours apart, vs PBS; wild-type T-ALL
Description: Whole cell lysates were prepared in RIPA buffer (50 mM Tris-HCl, 150 mM NaCl, 1% NP-40, 0.25% sodium deoxycholate, 5 mM EDTA) containing complete Mini protease and phosSTOP phosphatase inhibitors (Roche) and resolved by 8% SDS-PAGE gel electrophoresis. Proteins were transferred to nitrocellulose membranes (Bio-Rad) and probed with primary antibodies raised against c-Myc (polyclonal, Cell Signaling Technologies); 0-tubulin (polyclonal, Abcam); and β-actin (clone C4, Santa Cruz Biotechnologies). Following incubation with horseradish peroxidase (HRP)-conjugated anti-mouse or anti-rabbit secondary antibodies (Jackson laboratories), proteins were detected using the SuperSignal West Pico ECL Kit (Thermo Scientific) and exposed to film or imaged using the ChemiDoc MP system (Bio-rad).
For inhibition of CXCR4 in primary mouse T-ALL, mice were anaesthetized by isoflurane inhalation and implanted subcutaneously with osmotic pumps (model 2002; Alzet) filled with 40 mM AMD3465 (Tocris) or PBS (flow rate 0.5 ul/hour).

Myc [4] = settings: 4 days culture on OP9 cells with AMD3465 or vehicle, in vitro
Description: (§1) Primary mouse T-ALL cells isolated from spleen were maintained on OP9 stromal cells in OptiMEM+GlutaMAX (Invitrogen) supplemented with 10% FBS, 5 ng/ml IL-7, penicillin and streptomycin, and 55 μM (3-mercaptoethanol and passaged every 3-4 days onto a fresh feeder layer. OP9 cells were pre-treated with 7.5 ng/mL mitomycin C (Sigma) to prevent feeder cell division. Mouse ETP T-ALL (Treanor et al., “Interleukin-7 Receptor Mutants Initiate Early T Cell Precursor Leukemia in Murine Thymocyte Progenitors with Multipotent Potential,” J. Exp. Med. 211:701-713 (2014), which is hereby incorporated by reference in its entirety) and a T-ALL cell line generated by ENU mutagenesis carrying a Notch1 PEST domain mutation (G7084 (ins)C7085) were maintained on OP9-DLL4 feeders. AMD3100 octahydrochloride hydrate (10 ug/mL in water; Sigma), AMD3465 hexahydrobromide (50 ug/mL in water; Tocris or Cayman Chemical) or the corresponding vehicle was added to culture media at the start of the culture period.

[5] = tested on: primary mouse T-ALL cells; settings: MIG-IRES-GFP-cMyc vs control transduced cells; 4 days OP9 co-culture
Description: Data represents 1 experiment with 3 replicates per group for each AMD3465 concentration tested. Error bars represent +/−SD.
as §1

[6] = tested on: Myc expression signatures; settings: AMD3100 or vehicle for 4 days in vitro, OP9 co-culture
Description: FIG. 14A is a heat map depicting differentially expressed genes (Myc targets are indicated) in primary mouse T-ALL cells after 4 day culture with OP9 cells in the presence of AMD3100 or vehicle (right; n=3). […] Data represents 3 different experiments, with cells pooled from 1-3 mice per experiment.
Primary mouse T-ALL cells isolated from spleen were maintained on OP9 stromal cells in OptiMEM+GlutaMAX (Invitrogen) supplemented with 10% FBS, 5 ng/ml IL-7, penicillin and streptomycin, and 55 μM (3-mercaptoethanol and passaged every 3-4 days onto a fresh feeder layer. OP9 cells were pre-treated with 7.5 ng/mL mitomycin C (Sigma) to prevent feeder cell division. Mouse ETP T-ALL (Treanor et al., “Interleukin-7 Receptor Mutants Initiate Early T Cell Precursor Leukemia in Murine Thymocyte Progenitors with Multipotent Potential,” J. Exp. Med. 211:701-713 (2014), which is hereby incorporated by reference in its entirety) and a T-ALL cell line generated by ENU mutagenesis carrying a Notch1 PEST domain mutation (G7084 (ins)C7085) were maintained on OP9-DLL4 feeders. […]
Total RNA was extracted from samples using RNeasy Plus Mini Kit (Life Technologies). […] RNA libraries were then sequenced on the Illumina HiSeq 2000 or 2500 using 50 bp single-end reads. […]

[7] = recent clinical trials data; cited from earlier work

Structure (SMILES) | leukemia burden across all tissues surveyed (T-ALL cell numbers) [1] | number of hCD45+ cells in blood and spleen ([2]; AMD3465 25 nmol/hour via s.c. osmotic pump vs vehicle, patient 1 and 2 xenografts in NOD-SCID) | T-ALL infiltration of brain, liver and lungs (histo-pathological analysis) ([2]; AMD3465 via osmotic pump vs PBS, patient 1 xenograft) | splenomegaly ([2]; AMD3465 via osmotic pump vs vehicle (PBS), xenografted NOD-SCID mice) | Myc protein levels in T-ALL cells (Myc [3]) | Myc protein expression (MYC-GFP fusion allele) in mouse LIC cells (Myc [4]) | proliferation of T-ALL cells in the presence of AMD3465 upon Myc overexpression [5] | enrichment of genes down-regulated by treatment in Myc DNA binding databases (GSEA) [6] | absorption [7] | tolerability [7]
c1ccc(CNCc2ccc(CN3CCCNCCNCCCNCC3)cc2)nc1 [AMD3465, N[1,4,8,11-tetraazacyclotetradecanyl-1,4-phenylene-bis-(methylene)]-2-aminomethyl-pyridine] | substantial reduction | significantly reduced | virtually leukemia-free | substantially decreased | reduced | Reduced | partially restored | – | – | –
c1cc(CN2CCCNCCNCCCNCC2)ccc1CN1CCCNCCNCCCNCC1 [AMD3100, 1,1′-[1,4-phenylenebis(methylene)]bis[1,4,8,11-tetraazacyclotetradecane]] | – | – | – | – | – | – | – | significant enrichment | absorbed quickly | well tolerated
